The values that follow come from patent publication US5002948A, “3-[4-[4-substituted-1-piperazinyl]-1-butyl]-1H-2,3-dihydroindoles” (H. Lundbeck A/S, priority 1988, dated 1991).

In the experiment the target is T1, serotonin 5-HT1A receptors (Rattus norvegicus, UniProt P19327).
T1 construct: membranes from rat brain minus cerebellum; from tissue; host or cells: brain minus cerebellum of male Wistar (Mol:Wist) rats, membranes
T1 sequence (P19327 1-422): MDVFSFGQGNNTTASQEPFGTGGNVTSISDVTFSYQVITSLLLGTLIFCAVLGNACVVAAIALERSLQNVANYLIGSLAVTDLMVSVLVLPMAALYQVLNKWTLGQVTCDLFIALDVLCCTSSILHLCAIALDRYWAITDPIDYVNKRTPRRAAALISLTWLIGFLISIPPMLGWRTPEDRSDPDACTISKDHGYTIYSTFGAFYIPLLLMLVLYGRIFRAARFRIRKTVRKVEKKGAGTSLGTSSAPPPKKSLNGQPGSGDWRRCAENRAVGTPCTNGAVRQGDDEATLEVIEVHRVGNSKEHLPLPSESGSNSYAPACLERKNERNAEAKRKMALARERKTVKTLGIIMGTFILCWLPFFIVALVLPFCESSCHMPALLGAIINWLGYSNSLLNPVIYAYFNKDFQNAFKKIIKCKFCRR
As to the kind of experiment: Inhibition of 3H-8-OHDPAT binding to serotonin 5-HT1A receptors in rat brain in vitro. The following applies: 3H-8-OHDPAT 1 nM, rat brain membranes minus cerebellum, 37° C., 15 min; read-out: IC50 (3H 8-OH DPAT binding). The method, then:
INHIBITION OF ^3 H-8-OHDPAT BINDING TO SEROTONIN 5-HT1A RECEPTORS IN A RAT BRAIN IN VITRO
By this method the inhibition by drugs of the binding of ^3 H-8-OHDPAT (1 nM) to serotonin 5-HT1A receptors in membranes from rat brain minus cerebellum is determined in vitro.
Male Wistar (Mol:Wist) rats (125-250 g) are sacrificed and the brain is dissected and weighed. The brain tissue minus cerebellum is homogenized (Ultra Turrax, 20 sec) in 10 ml of ice cold 50 mM Tris buffer pH 8.0 (at 25° C.) containing 120 mM NaCl, 4 mM CaCl2 and 4 mM MgCl2. The homogenate is centrifuged at 20,000 g for 10 min at 4° C. The pellet is homogenized in 10 ml of buffer and incubated at 37° C. for 10 min. The homogenate is centrifuged as above and the pellet is homogenized in 100 vol (w/v) ice cold buffer containing 10 μ M of parglyine.
Incubation tubes kept on ice in triplicate receive 100 μl of drug solution in water (or water for total binding) and 1000 μ l of tissue suspension (final tissue content corresponds to 10 mg original tissue). The binding experiment is initiated by addition of 100 μ l of ^3 H-8-OHDPAT (final concentration 1 nM) and by placing the tubes in a 37° C. water bath. After incubation for 15 min the samples are filtered under vacuum (0-50 mBar) through Whatman GF/F filters ([…]). The tubes are rinsed with 5 ml ice cold 0.9% NaCl which are then poured on the filters. Thereafter, the filters are washed with 2×5 ml 0.9% NaCl. The filters are placed in counting vials and 4 ml of appropriate scintillation fluid (e.g. Picofluor™15) are added. After shaking for 1 h and storage 2 h in the dark the content of radioactivity is determined by liquid scintillation counting. Specific binding is obtained by subtracting the nonspecific binding in the presence of 10 μ M of 5-HT.
For determination of the inhibition of binding five concentrations of drugs covering 3 decades are used.
The IC50 -value is determined as the concentration, at which the binding is 50% of the total binding in control samples minus the nonspecific binding in the presence of 10 μM of 5-HT.
^3 H-8-OHDPAT from Amersham International plc. England. Specific activity approximately 200 Ci/mmol).

By IC50 is commonly meant the point on the concentration scale where inhibition reaches its midpoint. Turning to `COc1ccccc1N1CCN(CCCCC2CNc3ccccc32)CC1` (single isomer, unassigned; (+)) [Compound 7a, (+)-3-[4-[4-(2-methoxyphenyl)-1-piperazinyl]-1-butyl]-1H-2,3-dihydroindole], the IC50 was determined as 13 nM.

As to `COc1ccccc1N1CCN(CCCCC2CNc3ccccc32)CC1` (single isomer, unassigned; (-)) [Compound 7b, (-)-3-[4-[4-(2-methoxyphenyl)-1-piperazinyl]-1-butyl]-1H-2,3-dihydroindole], the IC50 turned out to be 8.6 nM.

On to `COc1ccccc1N1CCN(CCCCC2CNc3ccccc32)CC1` (stereo not drawn) [Compound 3a, 3-[4-[4-(2-methoxyphenyl)-1-piperazinyl]-1-butyl]-1H-2,3-dihydroindole], for which the IC50 was 14 nM.

With `CCOc1ccccc1N1CCN(CCCCC2CNc3ccccc32)CC1` (stereo not drawn) [Compound 3c, 3-[4-[4-(2-ethoxyphenyl)-1-piperazinyl]-1-butyl]-1H-2,3-dihydroindole], the half-inhibitory concentration (IC50) stood at 11 nM.

As to `c1ccc2c(c1)NCC2CCCCN1CCN(c2cccc3c2OCC3)CC1` (stereo not drawn) [Compound 3i, 3-[4-[4-(2,3-dihydro-7-benzofuranyl)-1-piperazinyl]-1-butyl]-1H-2,3-dihydroindole], the IC50 stood at 9.4 nM.

Consider `c1ccc2c(c1)NCC2CCCCN1CCN(c2cccc3c2OCCO3)CC1` (stereo not drawn) [Compound 3j, 3-[4-[4-(1,4-benzodioxan-5-yl)-1-piperazinyl]-1-butyl]-1H-2,3-dihydroindole], for which the IC50 worked out at 3.3 nM.
